Our source for the IC50 values is patent US8163774B2, “Amide-substituted 8-N-benzimidazoles, method for the production thereof, and use of the same as medicaments” (Sanofi-Aventis, priority 2005, dated 2012).

T1 sequence (P22411 whole entry): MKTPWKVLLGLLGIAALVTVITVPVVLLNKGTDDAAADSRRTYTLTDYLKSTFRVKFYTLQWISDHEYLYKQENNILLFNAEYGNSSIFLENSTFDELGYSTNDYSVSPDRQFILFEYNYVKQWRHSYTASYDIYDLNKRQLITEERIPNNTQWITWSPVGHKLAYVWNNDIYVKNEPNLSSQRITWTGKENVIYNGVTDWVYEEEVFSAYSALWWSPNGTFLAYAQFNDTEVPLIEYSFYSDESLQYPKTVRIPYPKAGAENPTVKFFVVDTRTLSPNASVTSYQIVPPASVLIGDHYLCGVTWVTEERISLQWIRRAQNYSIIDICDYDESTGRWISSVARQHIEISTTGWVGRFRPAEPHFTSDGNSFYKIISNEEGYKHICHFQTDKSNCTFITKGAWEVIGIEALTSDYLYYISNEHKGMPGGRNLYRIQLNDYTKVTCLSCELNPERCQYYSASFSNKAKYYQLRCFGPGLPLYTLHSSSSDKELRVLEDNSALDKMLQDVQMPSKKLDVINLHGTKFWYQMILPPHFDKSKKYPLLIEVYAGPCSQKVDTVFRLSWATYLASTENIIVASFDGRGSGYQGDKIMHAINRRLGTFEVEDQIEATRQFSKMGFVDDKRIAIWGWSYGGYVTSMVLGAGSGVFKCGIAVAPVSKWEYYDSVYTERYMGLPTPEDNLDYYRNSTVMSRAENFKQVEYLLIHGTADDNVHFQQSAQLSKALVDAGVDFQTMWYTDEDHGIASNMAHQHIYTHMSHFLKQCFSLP

The assay addresses T1, DPP-IV from porcine kidneys (Sus scrofa, UniProt P22411).
T1 construct: DPP-IV from porcine kidneys (Sigma, Munich); purchased Sigma, Munich; host or cells: porcine kidney tissue
Nature of the assay: Measurement of the DPP-IV activity (fluorimetric, H-Ala-Pro-AFC substrate). As to conditions: DPP-IV 1 mU/ml, substrate H-Ala-Pro-AFC 15 μM, Tris/HCl pH 7.4, room temperature. Type of assay: biochemical. The method, then: Measurement of the DPP-IV activity:
DPP-IV from porcine kidneys (Sigma, Munich)
H-Ala-Pro-AFC (Bachem, Weil am Rhein)
DPP-IV (1 mU/ml, end concentration)
H-Ala-Pro-AFC (15 μm end concentration)
in Tris/HCl (40 mM, pH 7.4), total volume 0.2 ml
The reaction was performed at room temperature for different periods (typically 10 minutes) and stopped at the end of the reaction by adding 20 μl of ZnCl2 (1 M). The conversion of H-AIa-Pro-AFC was determined fluorimetrically by measuring the emission at 535 nm on excitation at 405 nm. In the case of addition of inhibitors, the buffer volume added was adjusted such that a total volume of the test mixture of 200 μl was maintained.
IC50 values for inhibitors were determined by varying the inhibitor concentrations at the given substrate concentration of 15 μM. Ki and Km values were determined by corresponding variation of substrate and inhibitor concentration as described (Dixon, M. and Webb, E. C. (1979) Enzymes, third edition, pp. 47-206, Academic Press). The values for Km, IC50 and Ki were calculated using a commercially available software package (Leatherbarrow, R. J. (1992) GraFit Version 3.0, Erithacus Software Ltd. Staines, U.K.).
`N[C@@H]1CCCN(c2nc3ccc(C(=O)NCc4cccnc4)cc3n2Cc2ccc(F)cc2)C1` [Example 5] had a half-inhibitory concentration (IC50) of 2.5 µM.
The figure for `CC(C)=CCn1c(N2CCC[C@@H](N)C2)nc2ccc(C(=O)Nc3ccc(F)cc3)cc21` [Example 11] is 1.8 µM; for `N[C@@H]1CCCN(c2nc3ccc(C(=O)NCc4cccc(C(F)(F)F)c4)cc3n2Cc2ccc(F)cc2)C1` [Example 2] it is 1 µM.
The figure for `N[C@@H]1CCCN(c2nc3cc(C(=O)NCc4ccc(Cl)cc4)ccc3n2Cc2ccc(F)cc2)C1` [Example 6] is 4.3 µM.
